According to patent publication US20250359547A1, “ALKOXYLATED ALKANOLS FOR ENHANCING THE ACTIVITY OF ANTIMICROBIAL AGENTS” (BASF SE, priority 2022, published 2025):

System: Escherichia coli (E. coli DSM 682)
Test: Bactericidal activity of cleaner/disinfecting formulations according to DIN EN 1276-2010 under dirty conditions
Format: cell-based
Conditions: no ethoxylated alkanol, 0.3% bovine albumin, 35° C., 5 min contact time
Method: For biological activity testing, the following microorganisms were used: Escherichia coli(E. coli DSM 682)
Lutensol® XP 40 and benzalkonium chloride (BAC) were formulated into a dilutable concentrated hard-surface cleaner. For comparison, corresponding formulations containing Lutensol® XP 70 or Lutensol® A 7 N instead of Lutensol® XP 40 were also prepared. The finished formulations were pre-dissolved 1:80 in standardized hard water (DIN EN 1276-2010) and then diluted to 80% by adding 1 ml of the inoculate and 1 ml of bovine albumin solution to 8 ml of the pre-dissolved cleaner, so that in-test a dilution of 1:100 was obtained.
Antimicrobial testing of the above formulations in 1:100 dilution was done according to European Standard (DIN EN 1276-2010) under dirty conditions, i.e. additional soiling of 0.3% bovine albumin at 35° C. and […] contact time. Neutralization was done using the Saponin-containing neutralizer as described in DIN EN 1276 (30 g/l Polysorbate 80+30 g/l Saponin+3 g/l Lecithin). Results are documented in the table below as logarithmic reduction (Ig R) in comparison to the number of microorganisms used for the test.
Benzalkonium chloride (BAC) and one of Lutensol® XP 30, Lutensol® XP 40 and Lutensol® XP 50 were formulated into a dilutable concentrated hard-surface cleaner. The finished formulations were pre-dissolved 1:80 in standardized hard water (DIN EN 1276-2010) and then diluted to 80% by adding 1 ml of the inoculate and 1 ml of bovine albumin solution to 8 ml of the pre-dissolved cleaner, so that in-test a dilution of 1:100 was obtained.
Antimicrobial testing of the above formulations in 1:100 dilution was done according to European Standard (DIN EN 1276-2010) under dirty conditions, i.e. additional soiling of 0.3% bovine albumin at 35° C. and 5 min contact time. Neutralization was done using the Saponin-containing neutralizer as described in DIN EN 1276 (30 g/l Polysorbate 80+30 g/l Saponin+3 g/l Lecithin). Results are documented in the table below as logarithmic reduction (Ig R) in comparison to the number of microorganisms used for the test. […]

| SMILES | E. coli logarithmic reduction (lg R) (Example 1, BAC 40 ppm in-test, 1:100 dilution, pH ca. 8) | E. coli logarithmic reduction (lg R) (Example 2, BAC 40 ppm in-test) | E. coli logarithmic reduction (lg R) (Example 3, DDAC 20 ppm in-test) |
| --- | --- | --- | --- |
| CCCCCCCCCCCC[N+](C)(C)Cc1ccccc1.[Cl-] [BAC, lauryl dimethyl benzyl ammonium chloride] | <0.87 | 0.4 |  |
| CCCCCCCCCC[N+](C)(C)CCCCCCCCCC.[Cl-] [DDAC, didecyldimethylammonium chloride] |  |  | 0.7 |
